Measurements: ChEMBL document CHEMBL1124307, “Synthesis and beta-adrenergic antagonism of 2-(aryloxy)-1-(2-piperidyl)ethanols” (J Med Chem, 1988)
Active and inactive are the calls of the source. No cut-off for these calls is given here.

Species on record: Cavia porcellus
Assay: Antagonism ([…] blocking activity) of isoprenaline-induced positive inotropic effect in guinea pig left atrium; Inactive
Type: functional
Settings: Cardiac atrium
With `O[C@H](COCCCc1ccccc1)[C@H]1CCCCN1` (relative stereo) the pA2 was “inactive”.

Species on record: Cavia porcellus
Assay: Selectivity of inhibition at beta-1 versus beta-2 adrenergic receptors, […]
Settings: not given
In the case of `CC(C)N(C)CC(O)COc1ccccc1` (stereo not drawn), the Ratio is reported as 2.2. `CC(C)NCC(O)COCCCc1ccccc1` (stereo not drawn) gave a Ratio of 0.5. `CC(C)NCC(O)COCc1ccccc1` (stereo not drawn) gave a Ratio of 1. `CC(C)NCC(O)COc1ccc2ccccc2c1` (stereo not drawn) gave a Ratio of 0.9. In the case of `CC(C)NCC(O)COc1ccccc1` (stereo not drawn), the Ratio is reported as 8.1. `CN1CCCC[C@@H]1[C@H](O)COc1ccccc1` showed a Ratio of 0.7. Molecule `Cc1ccc(OCC(O)CNC(C)C)cc1` (stereo not drawn) has a Ratio of 1.8. Molecule `Cc1cccc(OCC(O)CNC(C)C)c1` (stereo not drawn) has a Ratio of 6.5. In the case of `CN1CCCC[C@H]1[C@H](O)COc1ccccc1` (relative stereo), the Ratio is reported as 1.4. Molecule `Cc1ccc(OC[C@@H](O)[C@@H]2CCCCN2)cc1` (relative stereo) has a Ratio of 0.8. For `Cc1ccc(OC[C@@H](O)[C@H]2CCCCN2)cc1` (relative stereo), the Ratio was 1.2. With `Cc1cccc(OC[C@@H](O)[C@@H]2CCCCN2)c1` (relative stereo) the Ratio was 0.03. In the case of `Cc1cccc(OC[C@@H](O)[C@H]2CCCCN2)c1` (relative stereo), the Ratio is reported as 0.5. With `O[C@H](COCCCc1ccccc1)[C@@H]1CCCCN1` (relative stereo) the Ratio was 0.1. Molecule `O[C@H](COCc1ccccc1)[C@@H]1CCCCN1` (relative stereo) has a Ratio of 2.5. `O[C@H](COCc1ccccc1)[C@H]1CCCCN1` (relative stereo) showed a Ratio of 0.4. `O[C@H](COc1ccc2ccccc2c1)[C@@H]1CCCCN1` (relative stereo) gave a Ratio of 1.8. With `O[C@H](COc1ccc2ccccc2c1)[C@H]1CCCCN1` (relative stereo) the Ratio was 2. For `O[C@H](COc1cccc2ccccc12)[C@@H]1CCCCN1` (relative stereo), the Ratio was 0.4. Work on `O[C@H](COc1cccc2ccccc12)[C@H]1CCCCN1` (relative stereo) yielded a Ratio of 0.7. `O[C@H](COc1ccccc1)[C@@H]1CCCCN1` (relative stereo) was tested, and the Ratio was 1.7. In the case of `O[C@H](COc1ccccc1)[C@H]1CCCCN1` (relative stereo), the Ratio is reported as 0.7.
